Results taken from US11358952B2, “Substituted 4-aminoisoindoline-1,3-dione compounds, compositions thereof, and methods of treatment therewith” (Celgene Corporation, priority 2018, dated 2022).

test system: SU-DHL-4 cell line; experiment: SU-DHL-4 cell proliferation assay (Cell Titer-Glo viability); assay type: cell-based; conditions: Homo sapiens; cell viability IC50 activity level, DLBCL cell line SU-DHL-4, 120 hours post-treatment; read-out: SU-DHL-4 Act
Procedure, shortened: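 SU-DHL-4 cells (500/well, RPMI-1640 + 10% FBS) exposed to 20-point compound dilutions (0.5 nM–10 μM, 0.1% DMSO) for 120 h at 37°C, 5% CO2. Viability measured by Cell Titer-Glo luminescence at t0 and at 120 h. IC50 is the concentration giving 50% of DMSO control, from a four-parameter logistic fit.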

CN(C)C(=O)c1ccc(N2CCN(Cc3ccc(CNc4cccc5c4C(=O)N(C4CCC(=O)NC4=O)C5=O)cc3F)CC2)cn1 (centres unmarked) [Cpd 142, 5-(4-(4-((2-(2,6-dioxopiperidin-3-yl)-1,3-dioxoisoindolin-4-ylamino)methyl)-2-fluorobenzyl)piperazin-1-yl)-N,N-dimethylpicolinamide] and NC(=O)c1ccc(N2CCN(Cc3ccc(CNc4cccc5c4C(=O)N(C4CCC(=O)NC4=O)C5=O)cc3F)CC2)nc1 (centres unmarked) [Cpd 152, 6-(4-(4-((2-(2,6-dioxopiperidin-3-yl)-1,3-dioxoisoindolin-4-ylamino)methyl)-2-fluorobenzyl)piperazin-1-yl)nicotinamide] fall in the same range of IC50: 501 to 750 nM for the first, 501 to 750 nM for the second.

CC(C)(C)OC1CCN(Cc2ccc(CNc3cccc4c3C(=O)N(C3CCC(=O)NC3=O)C4=O)c(F)c2)CC1 (centres unmarked) [Cpd 143, 4-(4-((4-tert-butyoxypiperidin-1-yl)methyl)-2-fluorobenzylamino)-2-(2,6-dioxopiperidin-3-yl)isoindoline-1,3-dione] and CC(C)(C)OC1CCN(Cc2ccc(CNc3cccc4c3C(=O)N(C3CCC(=O)NC3=O)C4=O)cc2F)CC1 (centres unmarked) [Cpd 146, 4-(4-((4-tert-butoxypiperidin-1-yl)methyl)-3-fluorobenzylamino)-2-(2,6-dioxopiperidin-3-yl)isoindoline-1,3-dione] cannot be ordered by IC50: less than 200 nM for the first, less than 200 nM for the second.

First: O=C1CCC(N2C(=O)c3cccc(NCc4ccc(CN5CCC6(CCCO6)CC5)cc4F)c3C2=O)C(=O)N1 (centres unmarked) [Cpd 144, 4-(4-(1-oxa-8-azaspiro[4.5]decan-8-ylmethyl)-2-fluorobenzylamino)-2-(2,6-dioxopiperidin-3-yl)isoindoline-1,3-dione]
Second: O=C1CCC(N2C(=O)c3cccc(NCc4ccc(CN5CCC6(CCCO6)CC5)c(F)c4)c3C2=O)C(=O)N1 (centres unmarked) [Cpd 147, 4-(4-(1-oxa-8-azaspiro[4.5]decan-8-ylmethyl)-3-fluorobenzylamino)-2-(2,6-dioxopiperidin-3-yl)isoindoline-1,3-dione]
The IC50 of the first is lower: less than 200 nM for the first, 200 to 500 nM for the second. The first is the more potent here.

CC1(C)CCC2(CCN(Cc3ccc(CNc4cccc5c4C(=O)N(C4CCC(=O)NC4=O)C5=O)c(F)c3)CC2)O1 (centres unmarked) [Cpd 145, 4-(4-((2,2-dimethyl-1-oxa-8-azaspiro[4.5]decan-8-yl)methyl)-2-fluorobenzylamino)-2-(2,6-dioxopiperidin-3-yl)isoindoline-1,3-dione] and CC1(C)CCC2(CCN(Cc3ccc(CNc4cccc5c4C(=O)N(C4CCC(=O)NC4=O)C5=O)cc3F)CC2)O1 (centres unmarked) [Cpd 148, 4-(4-((2,2-dimethyl-1-oxa-8-azaspiro[4.5]decan-8-yl)methyl)-3-fluorobenzylamino)-2-(2,6-dioxopiperidin-3-yl)isoindoline-1,3-dione] cannot be ordered by IC50: less than 200 nM for the first, less than 200 nM for the second.

NC(=O)c1ccc(N2CCN(Cc3ccc(CNc4cccc5c4C(=O)N(C4CCC(=O)NC4=O)C5=O)c(F)c3)CC2)nc1 (centres unmarked) [Cpd 149, 6-(4-(4-((2-(2,6-dioxopiperidin-3-yl)-1,3-dioxoisoindolin-4-ylamino)methyl)-3-fluorobenzyl)piperazin-1-yl)nicotinamide] and CCS(=O)(=O)N1CCN(Cc2ccc(CNc3cccc4c3C(=O)N(C3CCC(=O)NC3=O)C4=O)c(F)c2)CC1 (centres unmarked) [Cpd 160, 2-(2,6-dioxopiperidin-3-yl)-4-(4-((4-(ethylsulfonyl)piperazin-1-yl)methyl)-2-fluorobenzylamino)isoindoline-1,3-dione] cannot be ordered by IC50: less than 200 nM for the first, less than 200 nM for the second.

O=C1CCC(N2C(=O)c3cccc(NCc4ccc(CN5CCC6(CCNC6=O)CC5)cc4F)c3C2=O)C(=O)N1 (centres unmarked) [Cpd 150, 2-(2,6-dioxopiperidin-3-yl)-4-(2-fluoro-4-((1-oxo-2,8-diazaspiro[4.5]decan-8-yl)methyl)benzylamino)isoindoline-1,3-dione] and CN1CCC2(CCN(Cc3ccc(CNc4cccc5c4C(=O)N(C4CCC(=O)NC4=O)C5=O)c(F)c3)CC2)C1=O (centres unmarked) [Cpd 151, 2-(2,6-dioxopiperidin-3-yl)-4-(2-fluoro-4-((2-methyl-1-oxo-2,8-diazaspiro[4.5]decan-8-yl)methyl)benzylamino)isoindoline-1,3-dione] cannot be ordered by IC50: less than 200 nM for the first, less than 200 nM for the second.

First: CN1CCC2(CCN(Cc3ccc(CNc4cccc5c4C(=O)N(C4CCC(=O)NC4=O)C5=O)cc3F)CC2)C1=O (centres unmarked) [Cpd 153, 2-(2,6-dioxopiperidin-3-yl)-4-(3-fluoro-4-((2-methyl-1-oxo-2,8-diazaspior[4.5]decan-8-yl)methyl)benzylamino)isoindoline-1,3-dione]
Second: CCC1(OC)CCN(Cc2ccc(CNc3cccc4c3C(=O)N(C3CCC(=O)NC3=O)C4=O)cc2F)CC1 (centres unmarked) [Cpd 157, 2-(2,6-dioxopiperidin-3-yl)-4-(4-((4-ethyl-4-methoxypiperidin-1-yl)methyl)-3-fluorobenzylamino)isoindoline-1,3-dione]
The IC50 of the first is higher: 501 to 750 nM for the first, less than 200 nM for the second. The second is the more potent here.

First: O=C1CCC(N2C(=O)c3cccc(NCc4ccc(CN5CCOCC5)cc4F)c3C2=O)C(=O)N1 (centres unmarked) [Cpd 154, 2-(2,6-dioxopiperidin-3-yl)-4-(2-fluoro-4-(morpholinomethyl)benzylamino) isoindoline-1,3-dione]
Second: O=C1CCC(N2C(=O)c3cccc(NCc4ccc(CN5CC(N6CCOCC6)C5)cc4F)c3C2=O)C(=O)N1 (centres unmarked) [Cpd 171, 2-(2,6-dioxopiperidin-3-yl)-4-(2-fluoro-4-((3-morpholinoazetidin-1-yl)methyl)benzylamino)isoindoline-1,3-dione]
The IC50 of the first is higher: 200 to 500 nM for the first, less than 200 nM for the second. The second is the more potent here.

Compared with Cc1cc(CNc2cccc3c2C(=O)N(C2CCC(=O)NC2=O)C3=O)ccc1CN1CCOCC1 (centres unmarked) [Cpd 155, 2-(2,6-dioxopiperidin-3-yl)-4-(3-methyl-4-(morpholinomethyl)benzylamino) isoindoline-1,3-dione], CCOC1(C)CCN(Cc2ccc(CNc3cccc4c3C(=O)N(C3CCC(=O)NC3=O)C4=O)cc2F)CC1 (centres unmarked) [Cpd 159, 2-(2,6-dioxopiperidin-3-yl)-4-(4-((4-ethoxy-4-methylpiperidin-1-yl)methyl)-3-fluorobenzylamino)isoindoline-1,3-dione] is lower in IC50: 751 to 1000 nM for the first, less than 200 nM for the second.

CCC1(OC)CCN(Cc2ccc(CNc3cccc4c3C(=O)N(C3CCC(=O)NC3=O)C4=O)c(F)c2)CC1 (centres unmarked) [Cpd 156, 2-(2,6-dioxopiperidin-3-yl)-4-(4-((4-ethyl-4-methoxypiperidin-1-yl)methyl)-2-fluorobenzylamino)isoindoline-1,3-dione] and CCOC1(C)CCN(Cc2ccc(CNc3cccc4c3C(=O)N(C3CCC(=O)NC3=O)C4=O)c(F)c2)CC1 (centres unmarked) [Cpd 158, 2-(2,6-dioxopiperidin-3-yl)-4-(4-((4-ethoxy-4-methylpiperidin-1-yl)methyl)-2-fluorobenzylamino)isoindoline-1,3-dione] cannot be ordered by IC50: less than 200 nM for the first, less than 200 nM for the second.

CCS(=O)(=O)N1CCN(Cc2ccc(CNc3cccc4c3C(=O)N(C3CCC(=O)NC3=O)C4=O)cc2F)CC1 (centres unmarked) [Cpd 161, 2-(2,6-dioxopiperidin-3-yl)-4-(4-((4-(ethylsulfonyl)piperazin-1-yl)methyl)-3-fluorobenzylamino)isoindoline-1,3-dione] and CCS(=O)(=O)C1CCN(Cc2ccc(CNc3cccc4c3C(=O)N(C3CCC(=O)NC3=O)C4=O)c(F)c2)CC1 (centres unmarked) [Cpd 173] cannot be ordered by IC50: less than 200 nM for the first, less than 200 nM for the second.

First: O=C1CCC(N2C(=O)c3cccc(NCc4ccc(CN5CC6(CCC6)C5)c(F)c4)c3C2=O)C(=O)N1 (centres unmarked) [Cpd 162, 4-(4-(2-azaspiro[3.3]heptan-2-ylmethyl)-3-fluorobenzylamino)-2-(2,6-dioxopiperidin-3-yl)isoindoline-1,3-dione]
Second: O=C1CCC(N2C(=O)c3cccc(NCc4ccc(CN5CC(N6CCCC6=O)C5)cc4F)c3C2=O)C(=O)N1 (centres unmarked) [Cpd 169, 2-(2,6-dioxopiperidin-3-yl)-4-(2-fluoro-4-((3-(2-oxopyrrolidin-1-yl)azetidin-1-yl)methyl)benzylamino)isoindoline-1,3-dione]
The IC50 of the first is higher: 200 to 500 nM for the first, less than 200 nM for the second.

First: O=C1CCC(N2C(=O)c3cccc(NCc4ccc(CN5Cc6ccccc6C5)cc4)c3C2=O)C(=O)N1 (centres unmarked) [Cpd 163, 2-(2,6-dioxopiperidin-3-yl)-4-(4-(isoindolin-2-ylmethyl)benzylamino)isoindoline-1,3-dione]
Second: O=C1CCC(N2C(=O)c3cccc(NCc4ccc(CN5Cc6cccc(C(F)(F)F)c6C5)cc4)c3C2=O)C(=O)N1 (centres unmarked) [Cpd 164, 2-(2,6-dioxopiperidin-3-yl)-4-(4-((4-(trifluoromethyl)isoindolin-2-yl)methyl)benzylamino)isoindoline-1,3-dione]
The IC50 of the first is lower: less than 200 nM for the first, 200 to 500 nM for the second. The first is the more potent here.

O=C1CCC(N2C(=O)c3cccc(NCc4ccc(CN5CC(c6ccccn6)C5)cc4F)c3C2=O)C(=O)N1 (centres unmarked) [Cpd 165, 2-(2,6-dioxopiperidin-3-yl)-4-(2-fluoro-4-((3-(pyridin-2-yl)azetidin-1-yl)methyl)benzylamino)isoindoline-1,3-dione] and O=C1CCC(N2C(=O)c3cccc(NCc4ccc(CN5CCC(c6ccccn6)CC5)cc4F)c3C2=O)C(=O)N1 (centres unmarked) [Cpd 166] cannot be ordered by IC50: less than 200 nM for the first, less than 200 nM for the second.

O=C1CCC(N2C(=O)c3cccc(NCc4ccc(CN5CCC(O)(c6ccccn6)CC5)cc4F)c3C2=O)C(=O)N1 (centres unmarked) [Cpd 167, 2-(2,6-dioxopiperidin-3-yl)-4-(2-fluoro-4-((4-hydroxy-4-(pyridin-2-yl)piperidin-1-yl)methyl)benzylamino)isoindoline-1,3-dione] and O=C1CCC(N2C(=O)c3cccc(NCc4ccc(CN5CCC(F)(c6ccccn6)CC5)cc4F)c3C2=O)C(=O)N1 (centres unmarked) [Cpd 168, 2-(2,6-dioxopiperidin-3-yl)-4-(2-fluoro-4-((4-fluoro-4-(pyridin-2-yl)piperidin-1-yl)methyl)benzylamino)isoindoline-1,3-dione] cannot be ordered by IC50: less than 200 nM for the first, less than 200 nM for the second.

O=C1CCC(N2C(=O)c3cccc(NCc4ccc(CN5CCC(N6CCCC6=O)CC5)cc4F)c3C2=O)C(=O)N1 (centres unmarked) [Cpd 170, 2-(2,6-dioxopiperidin-3-yl)-4-(2-fluoro-4-((4-(2-oxopyrrolidin-1-yl)piperidin-1-yl)methyl)benzylamino)isoindoline-1,3-dione] and O=C1CCC(N2C(=O)c3cccc(NCc4ccc(CN5CCC(N6CCCS6(=O)=O)CC5)cc4F)c3C2=O)C(=O)N1 (centres unmarked) [Cpd 172, 4-((4-((4-(1,1-dioxidoisothiazolidin-2-yl)piperidin-1-yl)methyl)-2-fluorobenzyl)amino)-2-(2,6-dioxopiperidin-3-yl)isoindoline-1,3-dione] cannot be ordered by IC50: less than 200 nM for the first, less than 200 nM for the second.
